This note sets out measurements from ChEMBL document CHEMBL1909046, “DrugMatrix in vitro pharmacology data”.

For orientation: IC50 means the concentration needed to halve the response being measured. Usually Ki stands for a measure of affinity in units of concentration, obtained from inhibition or displacement.

The target in assay [1] is Sodium-dependent dopamine transporter (Homo sapiens, UniProt Q01959). Nature of the assay: DRUGMATRIX: Dopamine Transporter radioligand binding (ligand: [125I] RTI-55). In kind it is cell membranes, CHO-K1, Membrane. To be noted: Not Active = under 50% inhibition at 10 µM.
Sodium-dependent dopamine transporter, sequence (Q01959 whole entry): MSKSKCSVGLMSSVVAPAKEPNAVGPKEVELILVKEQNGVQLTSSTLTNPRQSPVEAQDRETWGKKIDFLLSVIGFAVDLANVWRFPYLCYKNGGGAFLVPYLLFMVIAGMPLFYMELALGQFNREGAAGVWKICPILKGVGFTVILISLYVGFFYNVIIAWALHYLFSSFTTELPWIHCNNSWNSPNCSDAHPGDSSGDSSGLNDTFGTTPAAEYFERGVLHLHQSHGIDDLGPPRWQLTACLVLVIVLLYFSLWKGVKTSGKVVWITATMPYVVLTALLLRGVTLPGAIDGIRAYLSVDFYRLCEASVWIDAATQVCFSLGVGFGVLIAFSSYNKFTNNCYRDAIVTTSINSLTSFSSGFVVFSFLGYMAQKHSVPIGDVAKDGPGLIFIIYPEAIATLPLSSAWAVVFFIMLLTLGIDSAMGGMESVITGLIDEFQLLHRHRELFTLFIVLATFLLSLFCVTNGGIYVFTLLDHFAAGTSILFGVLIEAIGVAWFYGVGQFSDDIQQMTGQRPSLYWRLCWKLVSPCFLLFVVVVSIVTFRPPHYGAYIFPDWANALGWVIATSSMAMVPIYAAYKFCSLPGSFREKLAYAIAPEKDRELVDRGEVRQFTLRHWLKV
Assay [2] has as its target Receptor tyrosine-protein kinase erbB-2 (Homo sapiens, UniProt P04626). Put plainly: biochemical. The format is cell-based, Insect cells. To be noted: insect cells.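 Note: inhibition of HER2 kinase enzyme activity, measured with Poly(Glu:Tyr) as the phosphorylation substrate; in other assays of this panel Not Active means under 50% inhibition at 10 µM.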
Assay [3] has as its target Kappa-type opioid receptor (Homo sapiens, UniProt P41145). Put plainly: DRUGMATRIX: Opiate kappa (OP2, KOP) radioligand binding (ligand: [3H] Diprenorphine). In kind it is cell membranes, HEK293, Membrane. To be noted: hek293; Not Active = under 50% inhibition at 10 µM.
Assay [4] can be described thus: DRUGMATRIX: Glutamate, Kainate radioligand binding (ligand: [3H] Kainic acid). The format is cell membranes, Rattus norvegicus, Wistar, Brain, Membrane. As to conditions: Not Active = under 50% inhibition at 10 µM.
Assay [5] has as its target T1, Cholecystokinin receptor type A (Homo sapiens, UniProt P32238). Note: in other assays of this panel Not Active means under 50% inhibition at 10 µM.
T1 sequence (P32238 whole entry): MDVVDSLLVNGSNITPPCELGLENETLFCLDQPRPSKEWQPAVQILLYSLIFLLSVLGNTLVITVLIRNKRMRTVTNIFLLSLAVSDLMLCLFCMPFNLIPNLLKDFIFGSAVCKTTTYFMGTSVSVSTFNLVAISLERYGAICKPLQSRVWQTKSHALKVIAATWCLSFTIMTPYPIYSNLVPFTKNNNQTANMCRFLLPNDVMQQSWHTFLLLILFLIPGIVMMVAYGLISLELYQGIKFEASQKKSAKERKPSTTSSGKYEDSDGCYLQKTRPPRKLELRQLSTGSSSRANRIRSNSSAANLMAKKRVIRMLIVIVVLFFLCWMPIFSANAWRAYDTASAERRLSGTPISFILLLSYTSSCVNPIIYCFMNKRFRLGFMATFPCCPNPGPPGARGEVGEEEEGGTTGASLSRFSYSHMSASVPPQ
The format is cell membranes, Membrane. To be noted: 1321-n1.

For another assay, the target named is T2, Glucocorticoid receptor (Homo sapiens, UniProt P04150). Note: in other assays of this panel Not Active means under 50% inhibition at 10 µM.
T2 sequence (P04150 whole entry): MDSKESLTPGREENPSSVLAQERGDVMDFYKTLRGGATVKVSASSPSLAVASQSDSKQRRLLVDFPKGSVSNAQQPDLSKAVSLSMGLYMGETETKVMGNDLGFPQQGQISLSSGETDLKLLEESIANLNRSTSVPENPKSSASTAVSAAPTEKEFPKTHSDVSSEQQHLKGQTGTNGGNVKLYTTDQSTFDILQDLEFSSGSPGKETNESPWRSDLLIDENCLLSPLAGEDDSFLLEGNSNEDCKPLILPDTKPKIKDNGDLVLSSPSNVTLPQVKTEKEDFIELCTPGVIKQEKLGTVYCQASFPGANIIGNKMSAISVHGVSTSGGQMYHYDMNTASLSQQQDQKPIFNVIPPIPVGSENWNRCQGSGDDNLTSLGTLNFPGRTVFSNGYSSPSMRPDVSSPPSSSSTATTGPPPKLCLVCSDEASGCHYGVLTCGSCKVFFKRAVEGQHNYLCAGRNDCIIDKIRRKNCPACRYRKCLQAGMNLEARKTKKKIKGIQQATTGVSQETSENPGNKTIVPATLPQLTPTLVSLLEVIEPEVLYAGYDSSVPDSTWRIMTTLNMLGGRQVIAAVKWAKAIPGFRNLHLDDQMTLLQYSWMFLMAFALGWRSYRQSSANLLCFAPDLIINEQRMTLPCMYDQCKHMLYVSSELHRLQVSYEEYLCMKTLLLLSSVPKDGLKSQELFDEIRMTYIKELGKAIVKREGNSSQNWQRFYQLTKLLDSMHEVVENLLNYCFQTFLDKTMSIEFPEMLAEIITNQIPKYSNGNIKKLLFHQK
As to conditions: hela s3.

A short description of assay [6]: DRUGMATRIX: Leukotriene, BLT (LTB4) radioligand binding (ligand: [3H]LTB4). In kind it is cell membranes, Membrane. As to conditions: u-937; Not Active = under 50% inhibition at 10 µM.
The target of another assay is T3, Cathepsin G (Homo sapiens, UniProt P08311).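 Note: inhibition of Cathepsin G enzyme activity, tested on an AMC-conjugated peptide substrate; in other assays of this panel Not Active means under 50% inhibition at 10 µM.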
T3 sequence (P08311 whole entry): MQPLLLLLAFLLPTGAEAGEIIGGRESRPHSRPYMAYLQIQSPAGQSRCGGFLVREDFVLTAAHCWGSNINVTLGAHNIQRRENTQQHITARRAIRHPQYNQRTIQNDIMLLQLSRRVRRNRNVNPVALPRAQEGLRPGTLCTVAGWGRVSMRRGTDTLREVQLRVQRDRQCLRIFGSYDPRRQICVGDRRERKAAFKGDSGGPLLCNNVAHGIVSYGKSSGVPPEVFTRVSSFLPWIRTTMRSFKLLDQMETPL
In kind it is tissue-based. To be noted: neutrophil.

Kappa-type opioid receptor, sequence (P41145 whole entry): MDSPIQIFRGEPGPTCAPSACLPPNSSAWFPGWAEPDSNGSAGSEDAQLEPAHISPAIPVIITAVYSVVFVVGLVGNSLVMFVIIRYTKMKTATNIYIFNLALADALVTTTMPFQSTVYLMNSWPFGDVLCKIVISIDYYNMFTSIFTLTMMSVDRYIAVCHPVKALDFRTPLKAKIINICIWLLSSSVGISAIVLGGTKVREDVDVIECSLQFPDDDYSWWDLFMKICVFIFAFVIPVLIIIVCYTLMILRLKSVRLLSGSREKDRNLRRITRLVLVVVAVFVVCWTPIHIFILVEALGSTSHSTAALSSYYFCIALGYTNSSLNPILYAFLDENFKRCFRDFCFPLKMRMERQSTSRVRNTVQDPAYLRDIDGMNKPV
Receptor tyrosine-protein kinase erbB-2, sequence (P04626 whole entry): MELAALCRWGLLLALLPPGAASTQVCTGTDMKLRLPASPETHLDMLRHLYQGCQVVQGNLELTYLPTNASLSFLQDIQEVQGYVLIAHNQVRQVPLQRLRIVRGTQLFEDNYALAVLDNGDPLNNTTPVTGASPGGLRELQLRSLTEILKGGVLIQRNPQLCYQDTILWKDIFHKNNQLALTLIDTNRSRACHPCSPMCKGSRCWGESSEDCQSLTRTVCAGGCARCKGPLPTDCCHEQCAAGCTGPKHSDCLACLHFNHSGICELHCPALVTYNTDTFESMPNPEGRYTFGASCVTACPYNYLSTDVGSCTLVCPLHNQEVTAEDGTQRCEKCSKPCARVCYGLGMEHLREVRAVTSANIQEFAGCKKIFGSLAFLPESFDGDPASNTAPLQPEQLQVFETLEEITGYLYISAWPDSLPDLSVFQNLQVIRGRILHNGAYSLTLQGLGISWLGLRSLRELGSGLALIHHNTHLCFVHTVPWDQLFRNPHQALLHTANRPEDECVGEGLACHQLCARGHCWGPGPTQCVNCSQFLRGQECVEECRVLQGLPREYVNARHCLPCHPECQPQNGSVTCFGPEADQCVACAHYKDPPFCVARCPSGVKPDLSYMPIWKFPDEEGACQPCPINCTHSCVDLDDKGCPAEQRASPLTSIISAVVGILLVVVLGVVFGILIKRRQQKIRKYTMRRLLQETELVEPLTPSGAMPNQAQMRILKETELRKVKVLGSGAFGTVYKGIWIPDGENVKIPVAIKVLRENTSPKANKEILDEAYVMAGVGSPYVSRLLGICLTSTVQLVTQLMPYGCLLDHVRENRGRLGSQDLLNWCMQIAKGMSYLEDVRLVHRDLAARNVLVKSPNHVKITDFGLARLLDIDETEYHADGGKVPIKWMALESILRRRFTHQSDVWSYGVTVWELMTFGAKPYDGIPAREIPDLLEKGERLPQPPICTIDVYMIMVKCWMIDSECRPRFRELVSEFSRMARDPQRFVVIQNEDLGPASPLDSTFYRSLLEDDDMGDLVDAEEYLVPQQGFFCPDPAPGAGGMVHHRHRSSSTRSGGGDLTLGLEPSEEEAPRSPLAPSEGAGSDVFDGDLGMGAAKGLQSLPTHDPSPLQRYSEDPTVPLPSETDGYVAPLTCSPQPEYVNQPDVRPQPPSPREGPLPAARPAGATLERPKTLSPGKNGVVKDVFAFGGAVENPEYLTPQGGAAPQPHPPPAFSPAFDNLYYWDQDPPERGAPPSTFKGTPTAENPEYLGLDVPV

Regarding `O=C1CN=C(c2ccccc2Cl)c2cc([N+](=O)[O-])ccc2N1` [CLONAZEPAM], the IC50 result (in assay [1] (cho-k1); in assay [2]; in assay [3]; in assay [4]; in assay [5]; against Glucocorticoid receptor) was “Not Active” in each case. Besides, the IC50 result (in assay [6]; at Cathepsin G) was “Not Active” throughout. Moreover, the Ki result in assay [4] and in assay [6] was “Not Active” in each case.
Turning to `Nc1ccn([C@@H]2O[C@H](CO)[C@@H](O)[C@@H]2O)c(=O)n1` [CYTARABINE], the IC50 result (in assay [1] (cho-k1); in assay [2]; in assay [3]; in assay [4]; in assay [5]; against Glucocorticoid receptor) was “Not Active” in each case. The IC50 entry (in assay [6]; on Cathepsin G) was “Not Active” each time. For the same compound, the Ki entry in assay [4] and in assay [6] was “Not Active” in each case.
Take `CN(C)CC[C@@H](c1ccc(Cl)cc1)c1ccccn1` [DEXCHLORPHENIRAMINE]: the concentration for half-maximal inhibition (IC50) is 931 nM in assay [1] (read-out: IC50); “Not Active” in assay [2]; “Not Active” in assay [3]; “Not Active” in assay [4]; “Not Active” in assay [5]; “Not Active” against Glucocorticoid receptor. The half-maximal inhibitory concentration (IC50) result (in assay [6]; against Cathepsin G) was “Not Active” each time. Besides, the inhibition constant Ki in assay [1] (read-out: Ki) was 739 nM; in assay [4], “Not Active”; in assay [6], “Not Active”.
Consider `C[C@@H]1CC[C@@]2(OC1)O[C@H]1[C@@H](O)[C@H]3[C@@H]4CC[C@H]5C[C@@H](O[C@@H]6O[C@H](CO)[C@H](O[C@@H]7O[C@H](CO)C(O)[C@H](O[C@@H]8OC[C@@H](O)[C@H](O)[C@H]8O)[C@H]7O[C@@H]7O[C@H](CO)[C@H](O)[C@H](O[C@@H]8O[C@H](CO)[C@@H](O)[C@H](O)[C@H]8O)[C@H]7O)[C@H](O)[C@H]6O)[C@H](O)C[C@]5(C)[C@H]4CC[C@]3(C)[C@H]1[C@@H]2C` (stereo partly specified) [DIGITONIN], for which the half-maximal inhibitory concentration (IC50) result (in assay [1] (cho-k1); in assay [2]; in assay [3]; in assay [4]; in assay [5]; against Glucocorticoid receptor) was “Not Active” in each case. In addition, the half-inhibitory concentration (IC50) result (in assay [6]; at Cathepsin G) was “Not Active” in each case. The Ki entry in assay [4] and in assay [6] was “Not Active” in each case.
With `C[C@H]1O[C@@H](n2cc(F)c(=O)[nH]c2=O)[C@H](O)[C@@H]1O` [DOXIFLURIDINE], the IC50 result (in assay [1] (cho-k1); in assay [2]; in assay [3]; in assay [4]; in assay [5]; against Glucocorticoid receptor) was “Not Active” in each case. In addition, the IC50 result (in assay [6]; on Cathepsin G) was “Not Active” in each case. Also, the inhibition constant (Ki) entry in assay [4] and in assay [6] was “Not Active” in each case.
`Cn1c(=O)c2c(ncn2CC(O)CO)n(C)c1=O` (stereo unspecified) [DYPHYLLINE]: the IC50 result (in assay [1] (cho-k1); in assay [2]; in assay [3]; in assay [4]; in assay [5]; against Glucocorticoid receptor) was “Not Active” in each case. The IC50 result (in assay [6]; against Cathepsin G) was “Not Active” throughout. The Ki result in assay [4] and in assay [6] was “Not Active” throughout.
On to `CC[C@H]1CN2CCc3cc(OC)c(OC)cc3[C@@H]2C[C@@H]1C[C@H]1NCCc2cc(OC)c(OC)cc21` [EMETINE], for which the IC50 entry (in assay [1] (cho-k1); in assay [2]; in assay [3]; in assay [4]; in assay [5]; at Glucocorticoid receptor) was “Not Active” throughout. The IC50 entry (in assay [6]; against Cathepsin G) was “Not Active” each time. For the same compound, the Ki result in assay [4] and in assay [6] was “Not Active” in each case.
As for `COC(=O)CCc1ccc(OCC(O)CNC(C)C)cc1` (stereo unspecified) [ESMOLOL], the half-maximal inhibitory concentration (IC50) result (in assay [1] (cho-k1); in assay [2]; in assay [3]; in assay [4]; in assay [5]; at Glucocorticoid receptor) was “Not Active” throughout. The IC50 entry (in assay [6]; on Cathepsin G) was “Not Active” each time. Moreover, the Ki entry in assay [4] and in assay [6] was “Not Active” each time.
With `CCC1(C)CC(=O)NC1=O` (stereo unspecified) [ETHOSUXIMIDE], the 50% inhibitory concentration (IC50) result (in assay [1] (cho-k1); in assay [2]; in assay [3]; in assay [4]; in assay [5]; against Glucocorticoid receptor) was “Not Active” throughout. Further, the IC50 result (in assay [6]; against Cathepsin G) was “Not Active” throughout. Also, the inhibitory constant (Ki) result in assay [4] and in assay [6] was “Not Active” throughout.
In the case of `C#C[C@]1(OC(C)=O)CC[C@H]2[C@@H]3CCC4=C[C@@H](OC(C)=O)CC[C@@H]4[C@H]3CC[C@@]21C` [ETHYNODIOL DIACETATE], the IC50 result (in assay [1] (cho-k1); in assay [2]; in assay [3]; in assay [4]; in assay [5]; at Glucocorticoid receptor) was “Not Active” each time. The IC50 result (in assay [6]; against Cathepsin G) was “Not Active” in each case. Besides, the inhibitory constant (Ki) entry in assay [4] and in assay [6] was “Not Active” throughout.
Consider `CC(C)(C)NC(=O)[C@H]1CC[C@H]2[C@@H]3CC[C@H]4NC(=O)C=C[C@]4(C)[C@H]3CC[C@]12C` [FINASTERIDE], for which the half-maximal inhibitory concentration (IC50) entry (in assay [1] (cho-k1); in assay [2]; in assay [3]; in assay [4]; in assay [5]; against Glucocorticoid receptor) was “Not Active” each time. Besides, the IC50 result (in assay [6]; on Cathepsin G) was “Not Active” throughout. Also, the Ki entry in assay [4] and in assay [6] was “Not Active” each time.
`COc1ccc2c3c1O[C@H]1C[C@@H](O)C=C[C@@]31CCN(C)C2` [GALANTAMINE]: the concentration for half-maximal inhibition (IC50) entry (in assay [1] (cho-k1); in assay [2]; in assay [3]; in assay [4]; in assay [5]; on Glucocorticoid receptor) was “Not Active” throughout. Further, the IC50 result (in assay [6]; against Cathepsin G) was “Not Active” in each case. Further, the inhibition constant (Ki) entry in assay [4] and in assay [6] was “Not Active” throughout.
`Nc1ccn([C@@H]2O[C@H](CO)[C@@H](O)C2(F)F)c(=O)n1` [GEMCITABINE]: the 50% inhibitory concentration (IC50) result (in assay [1] (cho-k1); in assay [2]; in assay [3]; in assay [4]; in assay [5]; at Glucocorticoid receptor) was “Not Active” each time. Also, the 50% inhibitory concentration (IC50) result (in assay [6]; against Cathepsin G) was “Not Active” each time. Further, the inhibition constant Ki entry in assay [4] and in assay [6] was “Not Active” in each case.
On to `CC(C)=CCC/C(C)=C/CO` [GERANIOL], for which the IC50 entry (in assay [1] (cho-k1); in assay [2]; in assay [3]; in assay [4]; in assay [5]; against Glucocorticoid receptor) was “Not Active” throughout. The 50% inhibitory concentration (IC50) result (in assay [6]; against Cathepsin G) was “Not Active” in each case. Further, the Ki entry in assay [4] and in assay [6] was “Not Active” in each case.
